The assay deals with T1, human plasma protein factor Xa (Homo sapiens, UniProt P00742).
T1 construct: measure proteolytic activity of the enzyme (factor Xa); purchased Haematologic Technologies (Essex Junction, Vt.); host or cells: human plasma
T1 sequence (P00742 235-488 limits assumed): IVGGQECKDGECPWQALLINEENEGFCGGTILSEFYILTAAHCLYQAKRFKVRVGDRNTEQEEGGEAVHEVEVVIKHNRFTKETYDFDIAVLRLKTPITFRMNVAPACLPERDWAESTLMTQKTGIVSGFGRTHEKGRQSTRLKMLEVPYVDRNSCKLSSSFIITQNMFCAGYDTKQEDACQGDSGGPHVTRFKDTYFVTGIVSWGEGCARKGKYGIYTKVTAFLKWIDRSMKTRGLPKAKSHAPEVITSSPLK
T1 sequence (P00742 41-179 partner limits assumed): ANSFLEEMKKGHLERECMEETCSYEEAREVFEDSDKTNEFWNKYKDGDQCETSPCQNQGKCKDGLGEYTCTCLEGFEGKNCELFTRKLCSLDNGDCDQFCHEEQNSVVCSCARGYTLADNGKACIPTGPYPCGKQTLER
The assay is described as follows: Factor Xa IC50 determination: cleavage of paranitroanilide substrate S-2765 in 96-well plates. The format is biochemical. The note with it: fXa 1 nM, S-2765 100 μM, Tris buffered saline pH 7.4, room temperature. The text has this: This example illustrates methods for evaluating the compounds of the invention, along with results obtained for such assays. The in vitro and in vivo Factor Xa isoform activities of the inventive compounds can be determined by various procedures known in the art, such as a test for their ability to inhibit the activity of the Factor Xa isoform. […] The IC50 value is the concentration (in nM) of the compound required to provide 50% inhibition of Factor Xa isoform.
An in vitro assay for detecting and measuring inhibition activity against Factor Xa is as follows:
The substrate S-2765 (Z-D-Arg-Gly-Arg-pNA.HCl) was obtained from Diapharma (West Chester, Ohio).
The human plasma protein factor Xa was purchased from Haematologic Technologies (Essex Junction, Vt.).
All assays, which are performed in 96-well microtiter plates, measure proteolytic activity of the enzyme (factor Xa) by following cleavage of paranitroanilide substrate. The assay buffer used for proteolytic assays was Tris buffered saline (20 mM Tris, 150 mM NaCl, 5 mM CaCl2, 0.1% Bovine serum albumin (BSA), 5% Dimethly Sulfoxide (DMSO) pH 7.4). In a 96-well microtiter plate, inhibitor was serially diluted to give a range of concentrations from 0.01 nM to 10 μM (final). Duplicate sets of wells were assayed and control wells without inhibitor were included. Enzyme was added to each well, (fXa concentration=1 nM), the plate was shaken for 5 seconds and then incubated for 5 minutes at room temperature. S2765 was added (100 μM final) and the plate was shaken for 5 seconds (final liquid volume in each well was 200 μl). The degree of substrate hydrolysis was measured at 405 nm on a Thermomax plate reader (Molecular Devices, Sunnyvale, Calif.) for 2 minutes. The initial velocities (mOD/min), for each range of inhibitor concentrations, were fitted to a four parameter equation using Softmax data analysis software. The parameter C, derived from the resulting curve-fit, corresponded to the concentration for half maximal inhibition (IC50).
On to `CC(NC(=O)c1ccc(Cl)s1)c1cc(-c2ccc(C(=N)N(C)C)cc2)no1` (stereo in doubt) [Example 53, (R)-5-Chloro-thiophene-2-carboxylic acid (1-{3-[4-(N,N-dimethyl-carbamimidoyl)-phenyl]-isoxazol-5-yl}-ethyl)-amide], for which the concentration for half-maximal inhibition (IC50) is no less than 500 nM.

In turn, `O=C(NCC1CC(c2ccc(Br)cc2)=NO1)c1ccc(Cl)s1` (stereo not drawn) [Example 1, 5-Chloro-thiophene-2-carboxylic acid [3-(4-bromo-phenyl)-4,5-dihydro-isoxazol-5-ylmethyl]-amide] showed an IC50 of no less than 500 nM.

Regarding `O=C(NCc1cc(-c2cccc(Br)c2)no1)c1ccc(Cl)s1` [Example 4, 5-Chloro-thiophene-2-carboxylic acid [3-(3-bromo-phenyl)-isoxazol-5-ylmethyl]-amide], the concentration for half-maximal inhibition (IC50) was no less than 500 nM.

With `O=C(NCC1CC(c2ccc(Oc3ccccc3)cc2)=NO1)c1ccc(Cl)s1` (stereo not drawn) [Example 5, 5-Chloro-thiophene-2-carboxylic acid [3-(4-phenoxy-phenyl)-4,5-dihydro-isoxazol-5-ylmethyl]-amide], the IC50 is no less than 500 nM.

In turn, `N#Cc1ccc(C2=NOC(CNC(=O)c3ccc(Cl)s3)C2)cc1` (stereo not drawn) [Example 7, 5-Chloro-thiophene-2-carboxylic acid [3-(4-cyano-phenyl)-4,5-dihydro-isoxazol-5-ylmethyl]-amide] came in with an IC50 of no more than 100 nM.

With `CN(C)C(=N)c1ccc(C2=NOC(CNC(=O)c3ccc(Cl)s3)C2)cc1` (stereo not drawn) [Example 8, 5-Chloro-thiophene-2-carboxylic acid {3-[4-(N,N-dimethyl-carbamimidoyl)-phenyl]-4,5-dihydro-isoxazol-5-ylmethyl}-amide], the IC50 was no more than 100 nM.

For the molecule `CN1CCN=C1c1ccc(C2=NOC(CNC(=O)c3ccc(Cl)s3)C2)cc1` (stereo not drawn) [Example 9, 5-Chloro-thiophene-2-carboxylic acid {3-[4-(1-methyl-4,5-dihydro-1H-imidazol-2-yl)-phenyl]-4,5-dihydro-isoxazol-5-ylmethyl}-amide], the IC50 was no more than 100 nM.

On to `N=C(c1ccc(C2=NOC(CNC(=O)c3ccc(Cl)s3)C2)cc1)N1CCCC1` (stereo not drawn) [Example 10, 5-Chloro-thiophene-2-carboxylic acid {3-[4-(imino-pyrrolidin-1-yl-methyl)-phenyl]-4,5-dihydro-isoxazol-5-ylmethyl}-amide], for which the half-inhibitory concentration (IC50) is no more than 100 nM.

On to `N=C(c1ccc(C2=NOC(CNC(=O)c3ccc(Cl)s3)C2)cc1)N1CCCCC1` (stereo not drawn) [Example 11, 5-Chloro-thiophene-2-carboxylic acid {3-[4-(imino-piperidin-1-yl-methyl)-phenyl]-4,5-dihydro-isoxazol-5-ylmethyl}-amide], for which the half-inhibitory concentration (IC50) lay within 100 to 500 nM.

`CCOC(=O)C1CCN(C(=N)c2ccc(C3=NOC(CNC(=O)c4ccc(Cl)s4)C3)cc2)CC1` (stereo not drawn) [Example 12, 1-{[4-(5-{[(5-Chloro-thiophene-2-carbonyl)-amino]-methyl}-4,5-dihydro-isoxazol-3-yl)-phenyl]-imino-methyl}-piperidine-4-carboxylic acid ethyl ester] gave an IC50 of 100 to 500 nM.

`C#CCN(C)C(=N)c1ccc(C2=NOC(CNC(=O)c3ccc(Cl)s3)C2)cc1` (stereo not drawn) [Example 13, 5-Chloro-thiophene-2-carboxylic acid {3-[4-(N-methyl-N-prop-2-ynyl-carbamimidoyl)-phenyl]-4,5-dihydro-isoxazol-5-ylmethyl}-amide] gave an IC50 of 100 to 500 nM.

`COCCN(C)C(=N)c1ccc(C2=NOC(CNC(=O)c3ccc(Cl)s3)C2)cc1` (stereo not drawn) [Example 14, 5-Chloro-thiophene-2-carboxylic acid (3-{4-[N-(2-methoxy-ethyl)-N-methyl-carbamimidoyl]-phenyl}-4,5-dihydro-isoxazol-5-ylmethyl)-amide]: the IC50 lay within 100 to 500 nM.

Take `CN(Cc1ccco1)C(=N)c1ccc(C2=NOC(CNC(=O)c3ccc(Cl)s3)C2)cc1` (stereo not drawn) [Example 15, 5-Chloro-thiophene-2-carboxylic acid {3-[4-(N-furan-2-ylmethyl-N-methyl-carbamimidoyl)-phenyl]-4,5-dihydro-isoxazol-5-ylmethyl}-amide]: the IC50 was 100 to 500 nM.

Turning to `CN(C)CCN(C)C(=N)c1ccc(C2=NOC(CNC(=O)c3ccc(Cl)s3)C2)cc1` (stereo not drawn) [Example 16, 5-Chloro-thiophene-2-carboxylic acid (3-{4-[N-(2-dimethylamino-ethyl)-N-methyl-carbamimidoyl]-phenyl}-4,5-dihydro-isoxazol-5-ylmethyl)-amide], the IC50 was no more than 100 nM.

In the case of `CCCN(C)C(=N)c1ccc(C2=NOC(CNC(=O)c3ccc(Cl)s3)C2)cc1` (stereo not drawn) [Example 17, 5-Chloro-thiophene-2-carboxylic acid {3-[4-(N-methyl-N-propyl-carbamimidoyl)-phenyl]-4,5-dihydro-isoxazol-5-ylmethyl}-amide], the IC50 is no more than 100 nM.

`CCN(C)C(=N)c1ccc(C2=NOC(CNC(=O)c3ccc(Cl)s3)C2)cc1` (stereo not drawn) [Example 18, 5-Chloro-thiophene-2-carboxylic acid {3-[4-(N-ethyl-N-methyl-carbamimidoyl)-phenyl]-4,5-dihydro-isoxazol-5-ylmethyl}-amide] showed an IC50 of no more than 100 nM.

Consider `N#Cc1ccc(-c2cc(CNC(=O)c3ccc(Cl)s3)on2)cc1` [Example 20, 5-Chloro-thiophene-2-carboxylic acid [3-(4-cyano-phenyl)-isoxazol-5-ylmethyl]-amide], for which the half-maximal inhibitory concentration (IC50) was no more than 100 nM.

Take `CN(C)C(=N)c1ccc(-c2cc(CNC(=O)c3ccc(Cl)s3)on2)cc1` [Example 21, 5-Chloro-thiophene-2-carboxylic acid {3-[4-(N,N-dimethyl-carbamimidoyl)-phenyl]-isoxazol-5-ylmethyl}-amide]: the IC50 was no more than 100 nM.

As for `CN1CCN=C1c1ccc(-c2cc(CNC(=O)c3ccc(Cl)s3)on2)cc1` [Example 22, 5-Chloro-thiophene-2-carboxylic acid {3-[4-(1-methyl-4,5-dihydro-1H-imidazol-2-yl)-phenyl]-isoxazol-5-ylmethyl}-amide], the half-maximal inhibitory concentration (IC50) is no more than 100 nM.

`N=C(c1ccc(-c2cc(CNC(=O)c3ccc(Cl)s3)on2)cc1)N1CCCC1` [Example 23, 5-Chloro-thiophene-2-carboxylic acid {3-[4-(imino-pyrrolidin-1-yl-methyl)-phenyl]-isoxazol-5-ylmethyl}-amide] yielded an IC50 of no more than 100 nM.

The molecule `N=C(c1ccc(-c2cc(CNC(=O)c3ccc(Cl)s3)on2)cc1)N1CCCCC1` [Example 24, 5-Chloro-thiophene-2-carboxylic acid {3-[4-(imino-piperidin-1-yl-methyl)-phenyl]-isoxazol-5-ylmethyl}-amide] had a half-inhibitory concentration (IC50) of no more than 100 nM.

With `CCOC(=O)C1CCN(C(=N)c2ccc(-c3cc(CNC(=O)c4ccc(Cl)s4)on3)cc2)CC1` [Example 25, 1-{[4-(5-{[(5-Chloro-thiophene-2-carbonyl)-amino]-methyl}-isoxazol-3-yl)-phenyl]-imino-methyl}-piperidine-4-carboxylic acid ethyl ester], the IC50 was no more than 100 nM.

For `N=C(c1ccc(-c2cc(CNC(=O)c3ccc(Cl)s3)on2)cc1)N1CCC1` [Example 26, 5-Chloro-thiophene-2-carboxylic acid {3-[4-(azetidin-1-yl-imino-methyl)-phenyl]-isoxazol-5-ylmethyl}-amide], the IC50 is no more than 100 nM.

On to `O=C(NCc1cc(-c2ccc(C(N3CCC3)=[N+]3CCC3)cc2)no1)c1ccc(Cl)s1` [Example 27, 5-Chloro-thiophene-2-carboxylic acid {3-[4-(azetidin-1-yl-azetidin-1-ylidene-methyl)-phenyl]-isoxazol-5-ylmethyl}-amide], for which the IC50 is no more than 100 nM.

Source of the values: US8377974B2 (Millennium Pharmaceuticals, Inc., priority 2004, dated 2013).
